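Five compound concentrations were applied to cells in 96-well plates for 48 hours; endpoints were derived by simple linear interpolation of the resulting dose-response curve. At the GI50, growth is halved. TGI denotes the concentration required for complete inhibition of growth.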
What was measured:
Test in all cases: growth of human tumour cells (NCI), 48 h; in the data active means GI50 below about 0.43 µM; inactive means the rest
UACC-257 melanoma = test system: UACC-257 melanoma
SF-295 CNS = test system: SF-295 CNS
BT-549 breast = test system: BT-549 breast
OVCAR-3 ovarian = test system: OVCAR-3 ovarian
HS 578T breast = test system: HS 578T breast
UACC-62 melanoma = test system: UACC-62 melanoma
SF-539 CNS = test system: SF-539 CNS
CAKI-1 renal = test system: CAKI-1 renal
NCI-H23 lung = test system: NCI-H23 lung
U251 CNS = test system: U251 CNS
A549 NSCLC = test system: A549 NSCLC
NCI/ADR-RES ovarian = test system: NCI/ADR-RES ovarian
HOP-62 NSCLC = test system: HOP-62 NSCLC
HOP-92 NSCLC = test system: HOP-92 NSCLC
MCF7 breast = test system: MCF7 breast
HCT-116 colon = test system: HCT-116 colon
SK-OV-3 ovarian = test system: SK-OV-3 ovarian
SNB-19 CNS = test system: SNB-19 CNS
DU-145 prostate = test system: DU-145 prostate
NCI-H226 lung = test system: NCI-H226 lung
NCI-H522 lung = test system: NCI-H522 lung
HCT-15 colon = test system: HCT-15 colon
SW-620 colon = test system: SW-620 colon
786-0 renal = test system: 786-0 renal
COLO 205 colon = test system: COLO 205 colon
IGROV1 ovarian = test system: IGROV1 ovarian
TK-10 renal = test system: TK-10 renal
SF-268 CNS = test system: SF-268 CNS
HT29 colon = test system: HT29 colon
ACHN renal = test system: ACHN renal
RXF 393 renal = test system: RXF 393 renal
SK-MEL-5 melanoma = test system: SK-MEL-5 melanoma
SR leukemia = test system: SR leukemia
K-562 leukemia = test system: K-562 leukemia
MALME-3M melanoma = test system: MALME-3M melanoma
MDA-MB-435 = test system: MDA-MB-435
M14 melanoma = test system: M14 melanoma
LOX IMVI melanoma = test system: LOX IMVI melanoma
A498 renal = test system: A498 renal
OVCAR-4 ovarian = test system: OVCAR-4 ovarian
MDA-MB-231 breast = test system: MDA-MB-231 breast
PC-3 prostate = test system: PC-3 prostate
NCI-H460 lung = test system: NCI-H460 lung
KM12 colon = test system: KM12 colon
CCRF-CEM leukemia = test system: CCRF-CEM leukemia
OVCAR-8 ovarian = test system: OVCAR-8 ovarian
EKVX NSCLC = test system: EKVX NSCLC
UO-31 renal = test system: UO-31 renal
T-47D breast = test system: T-47D breast
SK-MEL-2 melanoma = test system: SK-MEL-2 melanoma
SK-MEL-28 melanoma = test system: SK-MEL-28 melanoma
OVCAR-5 ovarian = test system: OVCAR-5 ovarian
RPMI-8226 leukemia = test system: RPMI-8226 leukemia

C=C1C(O)C2C(=C(CC(C)C)C13CC3)C(=O)C(C)(C)C2O (stereo unspecified)
> 100 µM: TGI (UACC-257 melanoma) | TGI (SF-295 CNS) | TGI (BT-549 breast) | TGI (OVCAR-3 ovarian) | TGI (HS 578T breast) | TGI (UACC-62 melanoma) | TGI (SF-539 CNS) | TGI (CAKI-1 renal) | TGI (NCI-H23 lung) | TGI (U251 CNS) | TGI (A549 NSCLC) | TGI (NCI/ADR-RES ovarian) | TGI (HOP-62 NSCLC) | TGI (HOP-92 NSCLC) | TGI (MCF7 breast) | TGI (HCT-116 colon) | TGI (SK-OV-3 ovarian) | TGI (SNB-19 CNS) | TGI (DU-145 prostate) | TGI (NCI-H226 lung) | TGI (NCI-H522 lung) | TGI (HCT-15 colon) | TGI (SW-620 colon) | TGI (786-0 renal) | TGI (COLO 205 colon) | TGI (IGROV1 ovarian) | TGI (TK-10 renal) | TGI (SF-268 CNS) | TGI (HT29 colon) | TGI (ACHN renal) | TGI (RXF 393 renal) | TGI (SK-MEL-5 melanoma) | TGI (SR leukemia) | TGI (K-562 leukemia) | TGI (MALME-3M melanoma) | TGI (MDA-MB-435) | TGI (M14 melanoma) | TGI (LOX IMVI melanoma) | TGI (A498 renal) | TGI (OVCAR-4 ovarian) | TGI (MDA-MB-231 breast) | TGI (PC-3 prostate) | TGI (NCI-H460 lung) | TGI (KM12 colon) | TGI (CCRF-CEM leukemia) | TGI (OVCAR-8 ovarian) | TGI (EKVX NSCLC) | TGI (UO-31 renal) | TGI (T-47D breast) | TGI (SK-MEL-2 melanoma) | TGI (SK-MEL-28 melanoma) | TGI (OVCAR-5 ovarian) | TGI (RPMI-8226 leukemia)
inactive: GI50 (UACC-257 melanoma) > 100 µM | GI50 (SF-295 CNS) > 100 µM | GI50 (BT-549 breast) > 100 µM | GI50 (OVCAR-3 ovarian) 75.8 µM | GI50 (HS 578T breast) > 100 µM | GI50 (UACC-62 melanoma) > 100 µM | GI50 (SF-539 CNS) > 100 µM | GI50 (CAKI-1 renal) > 100 µM | GI50 (NCI-H23 lung) > 100 µM | GI50 (U251 CNS) > 100 µM | GI50 (A549 NSCLC) > 100 µM | GI50 (NCI/ADR-RES ovarian) > 100 µM | GI50 (HOP-62 NSCLC) > 100 µM | GI50 (HOP-92 NSCLC) > 100 µM | GI50 (MCF7 breast) > 100 µM | GI50 (HCT-116 colon) > 100 µM | GI50 (SK-OV-3 ovarian) > 100 µM | GI50 (SNB-19 CNS) > 100 µM | GI50 (DU-145 prostate) > 100 µM | GI50 (NCI-H226 lung) > 100 µM | GI50 (NCI-H522 lung) > 100 µM | GI50 (HCT-15 colon) > 100 µM | GI50 (SW-620 colon) > 100 µM | GI50 (786-0 renal) > 100 µM | GI50 (COLO 205 colon) > 100 µM | GI50 (IGROV1 ovarian) > 100 µM | GI50 (TK-10 renal) > 100 µM | GI50 (SF-268 CNS) > 100 µM | GI50 (HT29 colon) > 100 µM | GI50 (ACHN renal) > 100 µM | GI50 (RXF 393 renal) > 100 µM | GI50 (SK-MEL-5 melanoma) > 100 µM | GI50 (SR leukemia) > 100 µM | GI50 (K-562 leukemia) 0.859 µM | GI50 (MALME-3M melanoma) 89.9 µM | GI50 (MDA-MB-435) > 100 µM | GI50 (M14 melanoma) > 100 µM | GI50 (LOX IMVI melanoma) > 100 µM | GI50 (A498 renal) > 100 µM | GI50 (OVCAR-4 ovarian) > 100 µM | GI50 (MDA-MB-231 breast) > 100 µM | GI50 (PC-3 prostate) > 100 µM | GI50 (NCI-H460 lung) > 100 µM | GI50 (KM12 colon) > 100 µM | GI50 (CCRF-CEM leukemia) > 100 µM | GI50 (OVCAR-8 ovarian) > 100 µM | GI50 (EKVX NSCLC) > 100 µM | GI50 (UO-31 renal) > 100 µM | GI50 (T-47D breast) > 100 µM | GI50 (SK-MEL-2 melanoma) > 100 µM | GI50 (SK-MEL-28 melanoma) > 100 µM | GI50 (OVCAR-5 ovarian) > 100 µM | GI50 (RPMI-8226 leukemia) 42.1 µM

From PubChem BioAssay (NCI)
